# Reference: PMC4176481, “Influence of D-glutamine and D-glutamic acid sequences in optical peptide probes targeted against the cholecystokinin-2/gastrin-receptor on binding affinity, specificity and pharmacokinetic properties” (EJNMMI Research, 2013)
# Starred links: 1 amine or outer side, 2 acyl side, 3 side chain; linkers in the order of their positions; H or OH if unused. Positions of bridges follow the written chain, without caps; N, C: chain ends. Non-standard residues stand in square brackets, D forms with d. Residues, ends and D or L forms follow the SMILES beside them. Chains are numbered I, II in the order given. *: point of attachment. X1 = CC(C)(C)c1cc(C=CC=CC=C2N(CCCS(=O)(=O)O)c3ccc(S(=O)(=O)O)cc3C2(C)CCCC(=O)*)c2cc3c(cc2[o+]1)N(CCCS(=O)(=O)O)C(C)(C)C=C3CS(=O)(=O)[O-]; Nle = CCCC[C@H](N)C(=O)O; X2 = O=C(C[*:1])[*:2]
# T1: cholecystokinin-2/gastrin receptor (CCK2R) (Homo sapiens, UniProt P32239)
# T1 chain: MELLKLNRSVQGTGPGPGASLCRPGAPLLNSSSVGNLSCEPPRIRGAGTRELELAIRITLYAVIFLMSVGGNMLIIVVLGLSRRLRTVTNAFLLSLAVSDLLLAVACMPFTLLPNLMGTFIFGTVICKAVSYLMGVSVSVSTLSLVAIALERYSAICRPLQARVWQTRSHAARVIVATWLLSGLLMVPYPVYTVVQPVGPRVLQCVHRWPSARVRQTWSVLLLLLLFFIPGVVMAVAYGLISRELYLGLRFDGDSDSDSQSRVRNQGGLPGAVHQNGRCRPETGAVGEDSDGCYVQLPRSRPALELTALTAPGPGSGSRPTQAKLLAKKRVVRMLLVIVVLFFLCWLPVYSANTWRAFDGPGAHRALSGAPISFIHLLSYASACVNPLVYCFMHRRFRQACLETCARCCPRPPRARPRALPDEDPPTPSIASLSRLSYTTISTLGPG
# Columns and labels:
# A431/WT cells = test: Target binding in vitro, fluorescence microscopy, CCK2R-non-expressing cells; type: cell-based, human; conditions: 0.5 μM, 30 min
# Procedure: (§1) Binding of the optical probes QE and bivQ to CCK2R-expressing (A431/CCK2R) and CCK2R-non-expressing (A431/WT) cells was investigated after incubation with 0.5 μM of each probe in culture medium for 30 min at 4°C to observe active surface receptor binding and at 37°C to check for internalization behaviour, which is mandatory for in vivo signal amplification. Incubation with 0.5 μM of the fluorochrome DY-754 should determine the role of the interaction of the peptide with the CCK2R for probe uptake. Probe incubation was followed by cell membrane staining with wheat germ agglutinin-Alexa Fluor®-555 (WGA-555, Invitrogen, Carlsbad, CA, USA), fixation in 4% (v/v) paraformaldehyde on ice and mounting in PermaFluor® Mounting medium (Thermo Fisher, Waltham, MA, USA), containing 0.2 μg/mL Hoechst 33258 (Applichem, Darmstadt, Germany) to stain cell nuclei. Fluorescence microscopy was carried out with the digital microscope EVOSfl (AMG, Bothell, WA, USA) equipped with three filter cubes for visualization of Hoechst (excitation 335 to 379 nm, emission 417 to 477 nm), WGA-555 (excitation 511 to 551 nm, emission 573 to 613 nm) and DY-754 (excitation 690 to 730 nm, emission 752 to 798 nm).
# [1] = tested on: A431/CCK2R and A431/WT tumours; test: Ex vivo intratumoural probe distribution in cryosections (Odyssey scanner); parameters: species or system athymic nude mice; conditions: acetone-fixed 30-μm cryosections of explanted xenografts, three specimens/group
# Excerpt: To determine intratumoural distribution of the peptide probes ex vivo, acetone-fixed 30-μm cryosections of explanted xenografts were scanned mesoscopically in the near-infrared scanner Odyssey® (LI-COR, Bad Homburg, Germany) at 700 nm (autofluorescence) and 800 nm (probe fluorescence).
# [2] = Biodistribution, ex vivo NIRF of organs and xenografts 8 h p.i.; type: in vivo, athymic nude mice
# Procedure: We investigated the biodistribution of the optical probes and of the fluorochrome DY-754 to determine the influence of the dye on tumour and organ accumulation. Therefore, 8 h p.i., ex vivo NIRF fluorescence images of the organs and the two xenografts (A431/CCK2R and A431/WT) per mouse were taken in combination with the placement of ROIs on these organs to assess semiquantitative fluorescence intensities.
# [3] = Metabolic (protease) stability in mouse liver homogenates; type: in vitro ADME; conditions: mouse liver homogenate, incubation up to 180 min, HPLC with UV/VIS detection at 750 nm, three parallels
# Procedure: Supplementary file 2191-219X-3-75-S3.pptx: Additional file 3: Metabolic (protease) stability of QE and bivQ against the degradation by mouse liver homogenates. The HPLC peak of non-degraded QE at 9.7 min elution time (a-I) decreased after 180 min of probe incubation in liver homogenate, whereas a second peak, representing degradation products, appeared at 7.2 min of elution (a-II). Degradation curves of (b) QE and (c) bivQ. […] Peaks were detected at 750 nm with a UV/VIS detector. Data represent three parallels. Click here for file
# Supplementary file 2191-219X-3-75-S4.pptx: Additional file 4: Metabolic stability of the optical CCK2R targeted minigastrin dQ-MG-754 [[20]]. Degradation of dQ-MG-754 for comparison with QE and bivQ. […] Probe signal was detected at 750 nm with a UV/VIS detector. Data represent three parallels. Click here for file
# A431/WT tumours = test: In vivo NIRF imaging of CCK2R-negative xenografts; parameters: species or system athymic nude mice; conditions: 1 to 8 h p.i.; i.v. 108 nmol/kg QE or 54 nmol/kg bivQ; n = 5
# Excerpt: Female athymic nude mice (Hsd:Athymic Nude-Foxn1^nu nu/nu; Harlan Laboratories, Eystrup, Germany) were housed under standard conditions with water and food ad libitum. Mice were maintained under a low-pheophorbide diet (C 1039; Altromin, Lage, Germany) to reduce tissue autofluorescence. All procedures were approved by the regional animal committee (reg. number 02-007/10) and were in accordance with international guidelines on the ethical use of animals. Animals were anesthetized with 2% isoflurane during all procedures. […]
# Xenografts were inoculated in athymic nude mice (Hsd:Athymic Nude-Foxn1^nu nu/nu; Harlan Laboratories) 10 to 15 days before imaging by subcutaneous injection of 0.5 million A431/CCK2R (left flank) and A431/WT cells (right flank) dispersed in Matrigel™ (BD Biosciences). For in vivo fluorescence imaging, 108 nmol/kg QE or 54 nmol/kg bivQ probe was injected intravenously (i.v.), according to the results of a dose determination experiment, which was set up to identify the optimal relation between sensitivity and contrast (Additional file 1). […] Another group received 108 nmol/kg of the unconjugated fluorophore DY-754 to determine dye-mediated non-specific tumour uptake, and one group remained untreated to control for probe-unrelated NIR fluorescence in the animals. […]
# A431/CCK2R tumours = test: In vivo NIRF imaging of CCK2R-expressing xenografts; parameters: species or system athymic nude mice
# Excerpt: Female athymic nude mice (Hsd:Athymic Nude-Foxn1^nu nu/nu; Harlan Laboratories, Eystrup, Germany) were housed under standard conditions with water and food ad libitum. Mice were maintained under a low-pheophorbide diet (C 1039; Altromin, Lage, Germany) to reduce tissue autofluorescence. All procedures were approved by the regional animal committee (reg. number 02-007/10) and were in accordance with international guidelines on the ethical use of animals. Animals were anesthetized with 2% isoflurane during all procedures. To implement subcutaneous xenografts, 5 × 10^5 CCK2R transfected (A431/CCK2R) and non-transfected wild-type cells (A431/WT) were dispensed in Matrigel™ (BD Biosciences, Heidelberg, Germany) and injected into the right (A431/CCK2R cells) and left (A431/WT cells) flank of 8- to 12-week-old animals 10 to 15 days before in vivo imaging.
# Xenografts were inoculated in athymic nude mice (Hsd:Athymic Nude-Foxn1^nu nu/nu; Harlan Laboratories) 10 to 15 days before imaging by subcutaneous injection of 0.5 million A431/CCK2R […] and A431/WT cells (right flank) dispersed in Matrigel™ (BD Biosciences). For in vivo fluorescence imaging, 108 nmol/kg QE or 54 nmol/kg bivQ probe was injected intravenously (i.v.), according to the results of a dose determination experiment, which was set up to identify the optimal relation between sensitivity and contrast (Additional file 1). […] Another group received 108 nmol/kg of the unconjugated fluorophore DY-754 to determine dye-mediated non-specific tumour uptake, and one group remained untreated to control for probe-unrelated NIR fluorescence in the animals. At defined time points between 0 and 8 h p.i., NIRF fluorescence images (excitation 615 to 665 nm, emission >750 nm) and white light images of the animals were obtained. By means of spectral unmixing, tissue autofluorescence was removed from the images. Subsequently, fluorescence intensities (FI) were analysed over the time in regions of interest (ROIs) that were placed upon the tumours and non-tumour tissue. As a measure of contrast between tumour and non-tumour fluorescence, tumour/background ratios (TBRs) were calculated as a quotient of FItumour/FInon-tumour.
# A431/CCK2R cells = test: Target binding and internalization in vitro, fluorescence microscopy; type: cell-based, human; conditions: 0.5 μM, 30 min
# Procedure: as §1
# [4] = biological target: T1, cholecystokinin-2/gastrin receptor …; test: competition with QE probe on cells, NIR fluorescence
# [5] = biological target: T1, cholecystokinin-2/gastrin receptor …; test: competition with bivQ probe on cells, NIR fluorescence
# [6] = biological target: T1, cholecystokinin-2/gastrin receptor …; test: saturation binding on A431/CCK2R cells, NIR fluorescence
molecule,measurement,setting,value
CCCC[C@H](NC(=O)[C@H](Cc1c[nH]c2ccccc12)NC(=O)CNC(=O)[C@H](Cc1ccc(O)cc1)NC(=O)[C@H](C)NC(=O)[C@@H](CCC(N)=O)NC(=O)[C@@H](CCC(N)=O)NC(=O)[C@@H](CCC(N)=O)NC(=O)CSC[C@H](NC(=O)CCCC1(C)C(=CC=CC=Cc2cc(C(C)(C)C)[o+]c3cc4c(cc23)C(CS(=O)(=O)[O-])=CC(C)(C)N4CCCS(=O)(=O)O)N(CCCS(=O)(=O)O)c2ccc(S(=O)(=O)O)cc21)C(=O)N[C@H](CCC(N)=O)C(=O)N[C@H](CCC(N)=O)C(=O)N[C@H](CCC(N)=O)C(=O)N[C@@H](C)C(=O)N[C@@H](Cc1ccc(O)cc1)C(=O)NCC(=O)N[C@@H](Cc1c[nH]c2ccccc12)C(=O)N[C@@H](CCCC)C(=O)N[C@@H](CC(=O)O)C(=O)N[C@@H](Cc1ccccc1)C(N)=O)C(=O)N[C@@H](CC(=O)O)C(=O)N[C@@H](Cc1ccccc1)C(N)=O (some centres unmarked) [bivQ] (I: X1-C[dQ][dQ][dQ]AYGW[Nle]DF-NH2 / II: [dQ][dQ][dQ]AYGW[Nle]DF-NH2; linker I:1-II:N via X2),binding to A431/WT cells (no CCK2R expression),A431/WT cells,no binding
same,intratumoural fluorescence at 800 nm in tumour sections,[1],only in the outer A431/CCK2R tumour regions
same,"fluorescence accumulation in stomach, small intestine and colon",[2]; n = 5,no fluorescence accumulation
same,uptake into A431/WT tumours (biodistribution),"[2]; n = 5, comparably high for DY-754 (p > 0.05)",weak uptake
same,metabolic stability against degradation by liver proteases,[3],only a limited metabolic stability
same,"TBR, A431/WT tumours",A431/WT tumours,< 2
same,"TBR, A431/CCK2R xenografts, under competition","A431/CCK2R tumours; 8 h p.i., co-injection of 10-fold molar excess of non-fluorescent minigastrin, mean ± SD, n = 5",4.0 ± 1.2
same,"tumour/background ratio (TBR), A431/CCK2R xenografts","A431/CCK2R tumours; 8 h p.i., i.v. 108 nmol/kg QE or 54 nmol/kg bivQ, mean ± SD, n = 5",6.3 ± 1.4
same,"TBR, CCK2R-expressing xenografts (summary bound)","A431/CCK2R tumours; high-contrast imaging, discussion summary",> 6
same,probe localisation in A431/CCK2R cells at 4°C,A431/CCK2R cells; 4°C,restricted to the cell membrane
same,binding and internalization in A431/CCK2R cells at 37°C,"A431/CCK2R cells; 37°C, n = 3",binding and internalization
LEEEEEAYGWMDF [HG-13 minigastrin],IC50,[4],16.7 nM
same,IC50,[5],16.6 nM
"{DY‑754}-AYGWMDF-NH2 (also: N-terminal spacer of three alternating D-Gln and three D-Glu, order not given here, M5: Met or Nle) [QE minigastrin probe]",Kd,[6],5.8 nM
